Test system: leukocyte-platelet aggregate (CD45+CD41+ population)
Assay: Leukocyte-platelet aggregate (LPA) formation and PSGL-1 expression in peripheral blood, L. major infection
Type: in vivo, mice
From the text: FIG. 12, comprising FIG. 12A through FIG. 12G, depicts results of experiments showing regulation of LPA formation by Dkk-1. FIG. 12A depicts AMNIS analysis of peripheral blood from 6-week old C57BL/6 male mice. FIG. 12B depicts flow cytometry analysis of the basal LPA population (CD45^+CD41^+) Dkk-1^d/d mice and their wildtype littermate controls. B-cell and CD4 T cell among CD45^+CD41^+ cells were monitored at the indicated time points in Dkk-1^d/d mice and their wildtype littermate controls challenged with 30 μg HDM extract/mouse. FIG. 12C depicts flow cytometry analysis of LPA formation in total CD45^+ cells, CD4 T cells, and neutrophils, in mice injected with Dkk-1 inhibitor (n=5) or DMSO vehicle (n=5) 24 hours prior to infection with L. major. FIG. 12D depicts flow cytometry analysis of peripheral blood at given time points for LPA formation in nine-week old C57BL/6 mice (n=5) injected with 300 ng of Dkk-1. […] Mean fluorescence intensity was normalized to unchallenged C57BL/6 mice. […] Normalized MFI for ICAM-1 expression and the percentages of LFA-1 high cells were measured by flow cytometry following injection of 300 ng of Dkk-1 intraperitoneally. […]
Human platelets were isolated as described from healthy volunteers (Tang et al., 2011, J Clin Invest 121:4462-76). […] Samples were analyzed by flow cytometry within 4 to 6 hours. […]

NCC1CCN(c2nccc(-c3ccc4ccccc4c3)n2)CC1 [WAY-262611, (1-(4-(naphthalen-2-yl)pyrimidin-2-yl)piperidin-4-yl)methanamine]
PSGL-1 expression on leukocytes (L. major infection, peripheral blood): blocked the increase | elevation of LPA formation (pretreatment 24 h prior to infection with L. major, 4 h post-infection): reduced

Reference: US11135223B2, “Compositions and methods for inhibiting Dkk-1” (YALE UNIVERSITY, priority 2016, dated 2021)
